Data taken from PMC11162475, “Rule-based omics mining reveals antimicrobial macrocyclic peptides against drug-resistant clinical isolates” (Nature Communications, 2024).
In brackets after ≈: the same amount, converted by molar mass. One block for each molecule: values may come before it.

What was measured:
[1] = system: Klebsiella pneumoniae ATCC700603; assay: microbe, parasite or virus in culture; format: cell-based; conditions: Klebsiella pneumoniae ATCC700603; determined by Sichuan Primed Shines Bio-tech, similar protocol; read-out: MIC
Method: (§1) For MIC determination, Staphylococcus aureus ATCC25923, Bacillus subtilis 168, Micrococcus luteus DSM1790, Enterococcus faecalis OG1RF, Enterococcus faecium MCC2763, Escherichia coli DH5α and Pseudomonas aeruginosa PAO1 were used as indicator strains. Nisin and vancomycin were used as positive controls. A dilution series of massatide A, massatide B, vancomycin (16, 8, 4, 2, 1, 0.5, 0.25, 0.125, 0.0625, 0.0313 μg/mL) and sistertide A1, kebanetide A1, kebanetide A2, nisin (64, 32, 16, 8, 4, 2, 1, 0.5, 0.25, 0.125 μg/mL) were prepared in 96-well plate from 1–10th column. The indicator strains were added to the compound-containing well. The indicator strain culture with no antibiotics was prepared in the 11th column. The 12th column was filled with 200 μL empty MHB medium. The 96-well plate was incubated at 37 °C for 20 h (30 °C for M. luteus and B. subtilis). The OD600 was detected on MULTISKAN Sky (Thermo Scientific) and MIC values were determined. The MIC values of clinical isolates were determined by Sichuan Primed Shines Bio-tech Co., Ltd. (China) following similar protocol. Levofloxacin was used as a positive control.

[2] = system: Acinetobacter baumannii 20-1; assay: microbe, parasite or virus in culture; format: cell-based; conditions: 201; Acinetobacter baumannii 20-1; determined by Sichuan Primed Shines Bio-tech, similar protocol; read-out: MIC
Method: as §1

[3] = system: Klebsiella pneumoniae 15-1; assay: microbe, parasite or virus in culture; format: cell-based; conditions: 151; Klebsiella pneumoniae 15-1; determined by Sichuan Primed Shines Bio-tech, similar protocol; read-out: MIC
Method: as §1

[4] = system: Enterococcus faecalis 19-1; assay: microbe, parasite or virus in culture; format: cell-based; conditions: 191; Enterococcus faecalis 19-1; determined by Sichuan Primed Shines Bio-tech, similar protocol; read-out: MIC
Method: as §1

[5] = system: Acinetobacter baumannii 20-2; assay: microbe, parasite or virus in culture; format: cell-based; conditions: 202; Acinetobacter baumannii 20-2; determined by Sichuan Primed Shines Bio-tech, similar protocol; read-out: MIC
Method: as §1

[6] = system: LREfa 20-1; assay: microbe, parasite or virus in culture; format: cell-based, Enterococcus faecalis; conditions: Enterococcus faecalis, 201; LREfa 20-1 (linezolid-resistant E. faecalis); determined by Sichuan Primed Shines Bio-tech, similar protocol; read-out: MIC
Method: as §1

[7] = system: VREfa ATCC51575; assay: microbe, parasite or virus in culture; format: cell-based, Enterococcus faecalis; conditions: Enterococcus faecalis; VREfa ATCC51575 (vancomycin-resistant E. faecalis); determined by Sichuan Primed Shines Bio-tech, similar protocol; read-out: MIC
Method: as §1

[8] = system: MRSA ATCC43300; assay: microbe, parasite or virus in culture; format: cell-based, Staphylococcus aureus; conditions: Staphylococcus aureus; MRSA ATCC43300; determined by Sichuan Primed Shines Bio-tech, similar protocol; read-out: MIC
Method: as §1

[9] = system: MRSA ATCC33591; assay: microbe, parasite or virus in culture; format: cell-based, Staphylococcus aureus; conditions: Staphylococcus aureus; MRSA ATCC33591; determined by Sichuan Primed Shines Bio-tech, similar protocol; read-out: MIC
Method: as §1

[10] = system: MRSA 15-1; assay: microbe, parasite or virus in culture; format: cell-based, Staphylococcus aureus; conditions: Staphylococcus aureus; MRSA 15-1 (methicillin-resistant S. aureus); determined by Sichuan Primed Shines Bio-tech, similar protocol; read-out: MIC
Method: as §1

[11] = system: VMSA ATCC700699; assay: microbe, parasite or virus in culture; format: cell-based, Staphylococcus aureus; conditions: Staphylococcus aureus; VMSA ATCC700699 (vancomycin-intermediate S. aureus); determined by Sichuan Primed Shines Bio-tech, similar protocol; read-out: MIC
Method: as §1

[12] = system: VMSA ATCC700788; assay: microbe, parasite or virus in culture; format: cell-based, Staphylococcus aureus; conditions: Staphylococcus aureus; VMSA ATCC700788 (vancomycin-intermediate S. aureus); determined by Sichuan Primed Shines Bio-tech, similar protocol; read-out: MIC
Method: as §1

[13] = system: LRSA 20-1; assay: microbe, parasite or virus in culture; format: cell-based, Staphylococcus aureus; conditions: Staphylococcus aureus; LRSA 20-1 (linezolid-resistant S. aureus); determined by Sichuan Primed Shines Bio-tech, similar protocol; read-out: MIC
Method: as §1

[14] = system: HeLa cells; assay: Mammalian cytotoxicity, CCK-8 assay; format: cell-based
Method: (§2) Bioactivity assay of the crude extract
(§3) Protease stability of massatide A
(§4) Thermal stability of massatide A […]
(§5) and 1% penicillin -streptomycin. […]
(§6) and CO 2-controllable incubator with 5% CO 2. All the cell experiments were performed […]
(§7) Cell viability was determined by the CCK -8 assay. HeLa and Hek -293T cells were […]
(§8) µg/ml. At the end of the fixed incubation period (24 h), cells were washed with PBS to remove excess compound. We added 100 µl fresh medium and 10 µl CCK-8 reagent.
(§9) After 2 h incubation at 37°C, absorbance at 450 nm was recorded using a microplate reader. All experiments were performed in triplicate (n=3 independent experiments).
(§10) Growth kinetics of S. aureus
(§11) Massatide A or B was prepared in a 96-well plate at the concentration of 8×MIC, 4×MIC, 2×MIC, 1×MIC and 0.5×MIC , respectively. The MHB medium with no compound was used as a control. Then, the overnight culture of S. aureus ATCC 25923 cells was added to the medium at 1:1,000. The plate was incubated with shaking in SpectraMax iD3 (MOLECULAR DEVICES) at 30 ℃. OD600 was measured every 30 min for 36 hours. To analyze the lysis, 1mL of S. aureus ATCC 25923 culture (OD600 1.0) was treated with massatide A or vancomycin (10×MIC) for 24h. An untreated sample was used as a negative control.
(§12) Time-dependent killing assay
(§13) An overnight culture of S. aureus ATCC 25923 cells was diluted at 1:10,000 in MHB medium and incubated at 37 ℃, 200 rpm for 2 hours to reach the early exponential.
(§14) Then, massatide A or vancomycin was added to the culture at the concentration of 10×MIC. Bacteria were still cultivated at 37 ℃, 200 rpm. Culture with no antibiotics was used as a negative control. 10 μL aliquots were removed at intervals, centrifuged, and resuspended in 1 ml PBS. Serially diluted (10-fold) suspensions were plated on MHB agar and incubated at 37 ℃ overnight for counting of colony-forming units.
(§15) Experiments were performed in triplicate.
(§16) Sequential culturing of S. aureus ATCC 25923 was performed in the presence of a subinhibitory concentration of massatide A to observe whether the resistance developed. […]

[15] = Mammalian cytotoxicity, CCK-8 assay; format: cell-based; conditions: human
Method: as §2, §3, §4, §5, §6, §7, §8, §9, §10, §11, §12, §13, §14, §15, §16

[16] = system: Staphylococcus aureus ATCC25923; assay: microbe, parasite or virus in culture; format: cell-based; conditions: ATCC25923, 20 h
Method: as §1

[17] = system: Micrococcus luteus DSM1790; assay: microbe, parasite or virus in culture; format: cell-based; conditions: DSM1790, 20 h
Method: as §1

[18] = system: Enterococcus faecium MCC2763; assay: microbe, parasite or virus in culture; format: cell-based; conditions: MCC2763, 20 h
Method: as §1

[19] = system: Enterococcus faecalis OG1RF; assay: microbe, parasite or virus in culture; format: cell-based; conditions: OG1RF, 20 h
Method: as §1

[20] = system: Bacillus subtilis 168; assay: microbe, parasite or virus in culture; format: cell-based; conditions: 168, 20 h
Method: as §1

[21] = system: Staphylococcus aureus ATCC25923; assay: Kirby-Bauer assay, zone of inhibition (agar well); format: cell-based; conditions: S. aureus ATCC25923; 10 μL of 3.2 mg/mL DMSO stock in well of soft LB agar, 37 °C, 20 h
Method: (§17) The stock solution of massatide A (1) and B (1a) 3.2 mg/mL were prepared in DMSO. 40 μL overnight culture of Micrococcus luteus DSM1790 was added to 20 mL soft Luria-Bertani agar (1% agar), and then poured into a plate. 10 μL tip was used to make two wells on the plate. 10 μL massatide A (1) or B (1a) solution was added in one of the wells, while in the other well, 10 μL DMSO was added as a negative control. The plates were incubated at 30 °C for 20 h to observe the zone of inhibition. Staphylococcus aureus ATCC25923 was also used to observe the inhibition zone using a similar method. The only difference is incubating at 37 °C. Stock solutions of sistertide A1, kebanetide A1 and A2 were 3.2 mg/mL, 1.6 mg/mL and 1.6 mg/mL, respectively. The method to observe the activity of these compounds individually was the same as that of massatide.

[22] = system: Micrococcus luteus DSM1790; assay: Kirby-Bauer assay, zone of inhibition (agar well); format: cell-based; conditions: M. luteus DSM1790; 10 μL DMSO stock (3.2 or 1.6 mg/mL) in well of soft LB agar, 30 °C, 20 h
Method: as §17

[23] = system: Pseudomonas aeruginosa PAO1; format: cell-based; conditions: PAO1, 20 h
Method: as §1

[24] = system: Escherichia coli DH5α; format: cell-based; conditions: DH5α, 20 h
Method: as §1

MIC [1]: 0.5 µg/mL (≈ 1.38 µM)
MIC [2]: 8 µg/mL (≈ 22.1 µM)
MIC [3]: 0.25 µg/mL (≈ 0.692 µM)
MIC [4]: 1 µg/mL (≈ 2.77 µM)
MIC [5]: 0.06 µg/mL (≈ 0.166 µM)
MIC [6]: 32 µg/mL (≈ 88.6 µM)
MIC [7]: 0.5 µg/mL (≈ 1.38 µM)
MIC [8]: 0.25 µg/mL (≈ 0.692 µM)
MIC [9]: 0.25 µg/mL (≈ 0.692 µM)
MIC [10]: 16 µg/mL (≈ 44.3 µM)
MIC [11]: 64 µg/mL (≈ 177 µM)
MIC [12]: 32 µg/mL (≈ 88.6 µM)
MIC [13]: 32 µg/mL (≈ 88.6 µM)
Structure (SMILES): C[C@H]1COc2c(N3CCN(C)CC3)c(F)cc3c(=O)c(C(=O)O)cn1c23 [Levofloxacin, reference compound]

MIC [16]: 1 µg/mL (≈ 0.612 µM)
MIC [17]: 0.25 µg/mL (≈ 0.153 µM)
MIC [18]: 4 µg/mL (≈ 2.45 µM)
MIC [19]: 4 µg/mL (≈ 2.45 µM)
MIC [20]: 4 µg/mL (≈ 2.45 µM)
MIC [23]: >64 µg/mL
MIC [24]: >64 µg/mL
Structure (SMILES): C/C=C1\NC(=O)C(N(C)C)C(C)SC[C@@H](C(=O)N/C(=C\C)C(=O)N[C@H](C(=O)N[C@@H](C)C(=O)N[C@H](C)C(=O)N[C@@H](Cc2ccccc2)C(=O)N[C@@H](C)C(=O)NC2C(=O)NCC(=O)N[C@@H](Cc3ccc(O)cc3)C(=O)N[C@@H](Cc3ccccc3)C(=O)N[C@H](C)C(=O)N/C=C\SC2C)C(C)C)NC(=O)[C@@H]2CCCN2C(=O)[C@H](C(C)C)NC1=O (stereo partly drawn) [Massatide B (1a), massatide B]
cytotoxicity against Hela cells [14]: did not exhibit any significant cytotoxicity
IC50 at 24 h [15]: > 200 µg/mL
inhibitory activity (zone of inhibition) [21]: strong inhibitory activity
inhibitory activity (zone of inhibition) [22]: strong inhibitory activity
